Laboratory results published in US20080160019A1, “SEQUENTIAL COMBINATION THERAPY” (DYAX CORP., priority 2006, published 2008).

Experiments:
[1] = test system: BxPC3 (human pancreatic cancer cell line) tumor; experiment: Pancreatic cancer xenograft model, tumor size by calipers (Example 3); format: in vivo, nude mice (nu/nu); conditions: as single agents
Description: The antitumor activity of combinations of DX-2240 and bevacizumab (anti-VEGF antibody) or sorafenib (multi-kinase inhibitor) were tested in a human tumor xenograft model. BxPC3 (human pancreatic cancer cell line) tumor fragments harvested from host nude mice (nu/nu) bearing subcutaneous BxPC-3 tumors were implanted subcutaneously into female nude mice (study animals) and allowed to form tumors. Mice were pair matched by tumor size and randomized into the various treatment groups when the tumors reached approximately 100 mm^3 (about 18 days following tumor implantation). The animals were assorted into the treatment groups shown in Table 1 (“Start” refers to the day on which treatment was begun). DX-2240 was administered by intraperitoneal (IP) injection at 20 mg/kg; bevacizumab was administered by IP injection at 10 mg/kg, sorafenib was administered orally at 60 mg/kg (for a total of 9 doses), and the control IgG (palivizumab, an antibody of the same isotype as DX-2240) was administered by IP injection at 20 mg/kg at the indicated dosing start dates and dosing regimens. An additional positive control group (group 13) was included: these animals were dosed with gemcitabine at 40 mg/kg Q3d for a total of four doses.
Tumor size was evaluated every three to four days using calipers.

[2] = test system: DU145 prostate cancer cells; experiment: Prostate cancer xenograft model, tumor volume (Example 4); format: in vivo, athymic nu/nu mice; conditions: bevacizumab alone at 12 mg/kg, Q5d
Description: DU145 prostate cancer cells were injected subcutaneously into athymic nu/nu mice and tumors were allowed to form. Animals were assorted into groups of 9-10 mice, then treated with DX-2240 (20 mg/kg by IP injection, […]), an isotype-matched antibody control (A2, 20 mg/kg by IP injection, Q2d), bevacizumab (12 mg/kg by IP injection, […]), DX-2240 20 mg/kg Q2d+bevacizumab (DX-2240 20 mg/kg Q2d+bevacizumab at 12 mg/kg, […], starting at day 25), DX-2240 20 mg/kg Q4d+bevacizumab (DX-2240 20 mg/kg Q4d+bevacizumab at 12 mg/kg, […], starting at day 25), DX-2240 10 mg/kg Q4d+bevacizumab (DX-2240 10 mg/kg Q4d+bevacizumab at 12 mg/kg, […], starting at day 25), DX-2240 5 mg/kg Q4d+bevacizumab (DX-2240 5 mg/kg Q4d+bevacizumab at 12 mg/kg, […], starting at day 25), DX-2240 1 mg/kg Q4d+bevacizumab (DX-2240 1 mg/kg Q4d+bevacizumab at 12 mg/kg, […], starting at day 25), DX-2240+sorafenib (DX-2240 at 20 mg/kg by IP injection, […], sorafenib at 100 mg/kg orally (PO) daily for nine days (QDx9) starting at day 25 and 56), or A2+sorafenib (A2 at 20 mg/kg by IP injection, […], sorafenib 100 mg/kg PO QDx9 starting at day 25 and 56). After day 34, mice in the DX-2240 only and A2 only groups were given an additional agent, and were no longer available as controls for this experiment. Tumor volume was measured twice weekly.

bevacizumab: anti-VEGF antibody
tumor size as compared to control [1]: reduced tumor size
tumor size [2]: tumor shrinkage
